# From the kinase profiling compilation of Christmann-Franck et al. (2016)
# How the values were obtained:
# Experiment in all cases: KINOMEscan competition binding
# Settings in all cases: compound 10.0 µM
# GRK7 (human) = GRK7 (human) (UniProt Q8WTQ7)
# RIOK3 (human) = RIOK3 (human) (UniProt O14730)
# RIOK1 (human) = RIOK1 (human) (UniProt Q9BRS2)
# [1] = system: FGFR3 (human), P22607 [G697C]
# CSF1R (human) = CSF1R (human) (UniProt P07333)
# ITK (human) = ITK (human) (UniProt Q08881)
# MAP3K2 (human) = MAP3K2 (human) (UniProt Q9Y2U5)
# Chain of MAP3K2 (human) (Q9Y2U5 whole entry, looked up): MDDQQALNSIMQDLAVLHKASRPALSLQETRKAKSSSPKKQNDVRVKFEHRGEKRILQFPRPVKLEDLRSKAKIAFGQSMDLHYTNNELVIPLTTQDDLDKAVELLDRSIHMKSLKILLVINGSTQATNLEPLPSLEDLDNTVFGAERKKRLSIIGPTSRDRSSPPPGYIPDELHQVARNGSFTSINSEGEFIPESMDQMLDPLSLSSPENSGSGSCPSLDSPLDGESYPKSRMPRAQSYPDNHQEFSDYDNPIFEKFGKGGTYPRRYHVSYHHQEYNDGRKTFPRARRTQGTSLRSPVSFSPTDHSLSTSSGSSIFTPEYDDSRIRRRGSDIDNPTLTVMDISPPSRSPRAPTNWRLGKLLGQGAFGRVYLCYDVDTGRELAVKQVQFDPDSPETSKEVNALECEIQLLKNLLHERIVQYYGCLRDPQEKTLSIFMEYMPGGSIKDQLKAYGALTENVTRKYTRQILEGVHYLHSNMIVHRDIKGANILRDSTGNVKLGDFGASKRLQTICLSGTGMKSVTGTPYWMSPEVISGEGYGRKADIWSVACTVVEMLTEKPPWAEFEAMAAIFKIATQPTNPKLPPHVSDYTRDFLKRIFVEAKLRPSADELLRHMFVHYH
# MERTK (human) = MERTK (human) (UniProt Q12866)
# Chain of MERTK (human) (Q12866 whole entry, looked up): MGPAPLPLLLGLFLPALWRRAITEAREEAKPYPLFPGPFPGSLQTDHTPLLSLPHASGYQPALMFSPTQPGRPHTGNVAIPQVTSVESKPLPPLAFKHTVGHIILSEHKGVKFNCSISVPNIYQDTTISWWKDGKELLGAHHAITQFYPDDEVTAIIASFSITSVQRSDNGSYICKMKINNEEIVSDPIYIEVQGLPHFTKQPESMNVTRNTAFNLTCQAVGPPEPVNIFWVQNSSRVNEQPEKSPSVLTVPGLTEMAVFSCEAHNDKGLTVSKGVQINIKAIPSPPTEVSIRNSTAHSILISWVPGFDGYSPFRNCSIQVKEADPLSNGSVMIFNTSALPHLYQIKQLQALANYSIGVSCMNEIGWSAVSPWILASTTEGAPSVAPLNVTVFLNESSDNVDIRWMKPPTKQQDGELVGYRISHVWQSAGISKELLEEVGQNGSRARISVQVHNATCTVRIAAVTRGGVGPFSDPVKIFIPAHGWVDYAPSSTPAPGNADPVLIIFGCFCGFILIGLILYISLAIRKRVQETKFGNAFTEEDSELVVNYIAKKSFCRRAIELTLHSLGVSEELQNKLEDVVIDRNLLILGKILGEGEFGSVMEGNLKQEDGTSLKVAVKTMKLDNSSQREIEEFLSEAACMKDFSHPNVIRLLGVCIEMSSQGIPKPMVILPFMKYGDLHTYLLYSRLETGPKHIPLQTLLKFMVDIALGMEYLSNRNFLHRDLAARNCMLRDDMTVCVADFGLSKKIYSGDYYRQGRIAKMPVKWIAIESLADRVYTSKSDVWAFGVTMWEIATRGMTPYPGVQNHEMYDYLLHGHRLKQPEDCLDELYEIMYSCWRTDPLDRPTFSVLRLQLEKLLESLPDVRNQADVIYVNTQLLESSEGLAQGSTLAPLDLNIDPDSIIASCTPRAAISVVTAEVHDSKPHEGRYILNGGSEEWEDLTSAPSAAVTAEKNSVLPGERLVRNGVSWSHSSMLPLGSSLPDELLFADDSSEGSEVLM
# ULK3 (human) = ULK3 (human) (UniProt Q6PHR2)
# Chain of ULK3 (human) (Q6PHR2 whole entry, looked up): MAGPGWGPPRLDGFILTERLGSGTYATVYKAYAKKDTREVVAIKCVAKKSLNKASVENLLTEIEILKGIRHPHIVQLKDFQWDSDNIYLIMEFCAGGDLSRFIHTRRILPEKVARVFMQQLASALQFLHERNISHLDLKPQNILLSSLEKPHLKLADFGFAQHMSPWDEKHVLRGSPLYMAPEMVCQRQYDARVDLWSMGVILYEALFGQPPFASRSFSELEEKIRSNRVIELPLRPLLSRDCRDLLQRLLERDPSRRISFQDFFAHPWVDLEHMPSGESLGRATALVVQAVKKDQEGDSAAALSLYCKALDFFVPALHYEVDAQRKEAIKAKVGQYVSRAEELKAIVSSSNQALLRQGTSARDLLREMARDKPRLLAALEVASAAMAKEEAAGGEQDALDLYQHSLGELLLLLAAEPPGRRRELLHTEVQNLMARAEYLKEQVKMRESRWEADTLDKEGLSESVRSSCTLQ
# BMP2K (human) = BMP2K (human) (UniProt Q9NSY1)
# CSK (human) = CSK (human) (UniProt P41240)
# NTRK2 (human) = NTRK2 (human) (UniProt Q16620)
# PRKCQ (human) = PRKCQ (human) (UniProt Q04759)
# PDGFRB (human) = PDGFRB (human) (UniProt P09619)
# [2] = system: FLT3 (human), P36888 [ITD]
# RPS6KA5 KD1 (human) = RPS6KA5 KD1 (human) (UniProt O75582)
# EPHA2 (human) = EPHA2 (human) (UniProt P29317)
# TSSK1B (human) = TSSK1B (human) (UniProt Q9BXA7)
# KIT (human) = KIT (human) (UniProt P10721)
# [3] = system: FLT3 (human), P36888 [D835Y]
# PTK6 (human) = PTK6 (human) (UniProt Q13882)
# ERN1 (human) = ERN1 (human) (UniProt O75460)
# MAP4K4 (human) = MAP4K4 (human) (UniProt O95819)
# MAP2K1 (human) = MAP2K1 (human) (UniProt Q02750)
# ERBB3 (human) = ERBB3 (human) (UniProt P21860)
# HIPK4 (human) = HIPK4 (human) (UniProt Q8NE63)
# LIMK1 (human) = LIMK1 (human) (UniProt P53667)
# Chain of LIMK1 (human) (P53667 whole entry, looked up): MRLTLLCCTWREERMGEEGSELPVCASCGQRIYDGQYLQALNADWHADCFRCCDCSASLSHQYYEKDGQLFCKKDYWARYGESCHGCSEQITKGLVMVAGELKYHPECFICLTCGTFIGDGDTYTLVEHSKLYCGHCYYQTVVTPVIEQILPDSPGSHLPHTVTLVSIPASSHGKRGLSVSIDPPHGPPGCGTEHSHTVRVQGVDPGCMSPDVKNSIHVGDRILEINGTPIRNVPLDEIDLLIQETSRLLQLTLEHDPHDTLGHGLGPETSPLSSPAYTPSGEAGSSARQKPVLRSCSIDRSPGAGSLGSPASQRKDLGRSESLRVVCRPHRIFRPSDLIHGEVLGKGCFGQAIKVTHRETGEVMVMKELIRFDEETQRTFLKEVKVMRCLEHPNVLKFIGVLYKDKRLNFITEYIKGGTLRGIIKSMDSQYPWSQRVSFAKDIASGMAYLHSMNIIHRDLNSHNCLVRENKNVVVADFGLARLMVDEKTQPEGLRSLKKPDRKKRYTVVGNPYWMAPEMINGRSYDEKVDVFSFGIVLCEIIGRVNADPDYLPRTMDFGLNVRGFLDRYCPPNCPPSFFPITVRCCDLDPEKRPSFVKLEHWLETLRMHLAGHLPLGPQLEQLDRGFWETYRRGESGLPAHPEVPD
# LTK (human) = LTK (human) (UniProt P29376)
# [4] = system: PIK3CA (human), P42336 [C420R]
# Chain of PIK3CA (human), P42336 [C420R] (P42336 whole entry C420R, looked up): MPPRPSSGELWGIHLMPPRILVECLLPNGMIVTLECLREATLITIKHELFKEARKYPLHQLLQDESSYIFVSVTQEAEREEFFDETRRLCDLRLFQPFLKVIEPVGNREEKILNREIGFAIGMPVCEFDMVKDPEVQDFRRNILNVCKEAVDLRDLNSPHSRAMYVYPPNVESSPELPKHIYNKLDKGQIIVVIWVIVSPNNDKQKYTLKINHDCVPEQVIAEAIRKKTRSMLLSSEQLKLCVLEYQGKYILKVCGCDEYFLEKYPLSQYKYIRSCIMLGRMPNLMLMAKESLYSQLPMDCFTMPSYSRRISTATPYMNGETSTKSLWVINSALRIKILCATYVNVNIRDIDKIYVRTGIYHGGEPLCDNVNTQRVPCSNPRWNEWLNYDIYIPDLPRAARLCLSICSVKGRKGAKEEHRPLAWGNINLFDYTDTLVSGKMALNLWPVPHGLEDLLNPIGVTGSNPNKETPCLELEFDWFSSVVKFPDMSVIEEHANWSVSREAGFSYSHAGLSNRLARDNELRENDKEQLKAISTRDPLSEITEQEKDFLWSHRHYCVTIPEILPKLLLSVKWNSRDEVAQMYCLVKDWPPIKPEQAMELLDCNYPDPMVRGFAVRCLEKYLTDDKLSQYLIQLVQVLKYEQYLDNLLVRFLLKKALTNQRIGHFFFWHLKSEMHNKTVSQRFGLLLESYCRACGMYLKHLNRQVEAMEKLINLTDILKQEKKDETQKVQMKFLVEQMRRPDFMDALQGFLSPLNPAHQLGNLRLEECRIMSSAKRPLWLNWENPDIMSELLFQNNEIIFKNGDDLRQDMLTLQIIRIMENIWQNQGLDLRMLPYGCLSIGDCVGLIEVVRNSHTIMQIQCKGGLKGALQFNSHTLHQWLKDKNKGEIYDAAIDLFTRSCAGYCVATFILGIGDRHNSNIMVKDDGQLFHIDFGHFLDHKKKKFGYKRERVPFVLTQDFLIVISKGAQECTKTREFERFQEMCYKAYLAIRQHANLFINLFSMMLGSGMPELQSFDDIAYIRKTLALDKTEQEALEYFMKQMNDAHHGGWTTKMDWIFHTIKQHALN
# ABL1 (human) = ABL1 (human) (UniProt P00519)
# RPS6KA5 KD2 (human) = RPS6KA5 KD2 (human) (UniProt O75582)
# [5] = system: PIK3CA (human), P42336 [E545A]
# Chain of PIK3CA (human), P42336 [E545A] (P42336 whole entry E545A, looked up): as the sequence (P42336 whole entry C420R, looked up) above, with R420C, E545A counted along it
# NUAK2 (human) = NUAK2 (human) (UniProt Q9H093)
# MAP2K3 (human) = MAP2K3 (human) (UniProt P46734)
# MAPK13 (human) = MAPK13 (human) (UniProt O15264)
# STK16 (human) = STK16 (human) (UniProt O75716)
# MAPK4 (human) = MAPK4 (human) (UniProt P31152)
# [6] = target: JAK2 JH1 catalytic (human) (UniProt O60674)
# CAMK2A (human) = CAMK2A (human) (UniProt Q9UQM7)
# Chain of CAMK2A (human) (Q9UQM7 whole entry, looked up): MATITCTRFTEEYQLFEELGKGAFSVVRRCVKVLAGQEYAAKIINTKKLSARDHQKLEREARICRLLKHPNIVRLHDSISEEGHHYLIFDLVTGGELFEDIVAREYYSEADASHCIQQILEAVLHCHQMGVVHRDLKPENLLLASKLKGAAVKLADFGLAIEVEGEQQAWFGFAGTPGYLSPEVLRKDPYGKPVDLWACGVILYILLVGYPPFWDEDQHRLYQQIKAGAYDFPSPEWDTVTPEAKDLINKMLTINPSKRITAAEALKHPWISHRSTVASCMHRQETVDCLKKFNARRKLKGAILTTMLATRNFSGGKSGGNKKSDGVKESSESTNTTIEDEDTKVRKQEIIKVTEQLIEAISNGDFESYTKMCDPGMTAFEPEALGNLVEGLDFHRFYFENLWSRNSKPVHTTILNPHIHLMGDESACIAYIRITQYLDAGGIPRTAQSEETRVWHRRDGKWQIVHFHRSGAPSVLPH
# PLK3 (human) = PLK3 (human) (UniProt Q9H4B4)
# Chain of PLK3 (human) (Q9H4B4 whole entry, looked up): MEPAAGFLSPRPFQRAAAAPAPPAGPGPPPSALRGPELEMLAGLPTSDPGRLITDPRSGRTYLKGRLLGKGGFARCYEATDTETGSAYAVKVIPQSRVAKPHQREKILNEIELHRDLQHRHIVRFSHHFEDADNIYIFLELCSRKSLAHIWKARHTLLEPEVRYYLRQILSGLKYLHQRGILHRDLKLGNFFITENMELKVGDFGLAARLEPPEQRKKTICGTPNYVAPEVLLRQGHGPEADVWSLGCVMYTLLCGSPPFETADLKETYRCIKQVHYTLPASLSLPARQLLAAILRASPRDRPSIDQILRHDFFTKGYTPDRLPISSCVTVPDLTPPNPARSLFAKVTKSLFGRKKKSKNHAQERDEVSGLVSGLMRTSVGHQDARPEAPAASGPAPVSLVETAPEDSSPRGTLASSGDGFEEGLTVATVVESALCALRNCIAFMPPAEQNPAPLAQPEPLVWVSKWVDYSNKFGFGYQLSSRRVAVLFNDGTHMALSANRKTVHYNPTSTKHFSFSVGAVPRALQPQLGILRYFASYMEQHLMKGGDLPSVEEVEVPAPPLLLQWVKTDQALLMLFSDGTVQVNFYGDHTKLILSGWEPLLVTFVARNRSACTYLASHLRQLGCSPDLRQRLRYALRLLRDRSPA
# PAK1 (human) = PAK1 (human) (UniProt Q13153)
compound,measurement,setting,value
O=C1Nc2cc(Br)ccc2/C1=C1/Nc2ccccc2/C1=N\O,"kinase still bound, per cent of control",GRK7 (human),58%
same,"kinase still bound, per cent of control",RIOK3 (human),8.4%
same,"kinase still bound, per cent of control",RIOK1 (human),5.1%
same,"kinase still bound, per cent of control",[1],14%
same,"kinase still bound, per cent of control",CSF1R (human),1.2%
same,"kinase still bound, per cent of control",ITK (human),11%
same,"kinase still bound, per cent of control",MAP3K2 (human),56%
same,"kinase still bound, per cent of control",MERTK (human),0.4%
same,"kinase still bound, per cent of control",ULK3 (human),1.3%
same,"kinase still bound, per cent of control",BMP2K (human),0.65%
same,"kinase still bound, per cent of control",CSK (human),56%
same,"kinase still bound, per cent of control",NTRK2 (human),7.2%
same,"kinase still bound, per cent of control",PRKCQ (human),55%
same,"kinase still bound, per cent of control",PDGFRB (human),0%
same,"kinase still bound, per cent of control",[2],0.15%
same,"kinase still bound, per cent of control",RPS6KA5 KD1 (human),47%
same,"kinase still bound, per cent of control",EPHA2 (human),35%
same,"kinase still bound, per cent of control",TSSK1B (human),100%
same,"kinase still bound, per cent of control",KIT (human),0.05%
same,"kinase still bound, per cent of control",[3],0%
same,"kinase still bound, per cent of control",PTK6 (human),84%
same,"kinase still bound, per cent of control",ERN1 (human),51%
same,"kinase still bound, per cent of control",MAP4K4 (human),8%
same,"kinase still bound, per cent of control",MAP2K1 (human),37%
same,"kinase still bound, per cent of control",ERBB3 (human),61%
same,"kinase still bound, per cent of control",HIPK4 (human),3%
same,"kinase still bound, per cent of control",LIMK1 (human),59%
same,"kinase still bound, per cent of control",LTK (human),100%
same,"kinase still bound, per cent of control",[4],100%
same,"kinase still bound, per cent of control",ABL1 (human),2.3%
same,"kinase still bound, per cent of control",RPS6KA5 KD2 (human),75%
same,"kinase still bound, per cent of control",[5],100%
same,"kinase still bound, per cent of control",NUAK2 (human),39%
same,"kinase still bound, per cent of control",MAP2K3 (human),33%
same,"kinase still bound, per cent of control",MAPK13 (human),100%
same,"kinase still bound, per cent of control",STK16 (human),0.8%
same,"kinase still bound, per cent of control",MAPK4 (human),100%
same,"kinase still bound, per cent of control",[6],25%
same,"kinase still bound, per cent of control",CAMK2A (human),0.8%
same,"kinase still bound, per cent of control",PLK3 (human),100%
same,"kinase still bound, per cent of control",PAK1 (human),68%
